In brackets after ≈: the same amount, converted by molar mass. Like-named read-outs stand apart in the source and are kept apart here. Bridge positions count the residues as written; N and C are the ends. Square brackets hold non-standard residues; d marks the D form. Peptide text beside a SMILES is read from it.
How the values were obtained:
[1] = format: cell-based, human
In short: (§1)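 Cells were plated at about 4 × 10^4/well in 2% FBS, then exposed to peptide at 100–3.12 μM in serum-free medium for 2 h or 24 h. Viability was measured by MTT reduction (0.5 mg/mL, 4 h, absorbance 570 nm) relative to untreated cells, as the mean ± SEM of three experiments.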

[2] = tested on: human keratinocytes (HaCaT cells); format: cell-based
In short: as §1

[3] = format: cell-based, P. aeruginosa
Experimental: The antibiofilm activity was evaluated as elsewhere reported. Bacteria grew at 37 °C until they reached an optical density (OD) of 0.8 (λ = 590 nm). The culture was diluted to a cell density of 1 × 10^6 colony-forming units (CFUs)/mL and aliquots of 100 μL of this suspension were dispensed into the wells of a 96-multiwell plate. After biofilm formation (incubation time = 20 h at 37 °C), all the planktonic cells were removed, and the wells were washed twice with PBS (150 μL). After washing, the wells were filled with PBS supplemented with different 2-fold serial dilutions of the tested peptides (from 50 to 1.56 μM). After peptide treatment (incubation time = 2 h at 37 °C) the wells were washed with PBS twice and filled with 150 μL of MTT (0.5 mg/mL) to evaluate biofilm viability after 4 h incubation at 37 °C. The reaction was then stopped by adding SDS (final concentration equal to 5% v/v). A microplate reader (Infinite M200; Tecan, Salzburg, Austria) was used to measure the absorbance of each well at 570 nm and the percentage of biofilm viability was calculated relative to the untreated samples.

[4] = format: cell-based; conditions: Cell viability (%)
In short: as §1

BEAS-2B cells = format: cell-based
In short: as §1

S. aureus ATCC 25923 = assay: microbe, parasite or virus in culture; format: cell-based; conditions: ATCC 25923
In short: (§2)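 Broth MIC determination: cells grown to mid-log phase, diluted to 2 × 10^6 cell/mL in Mueller Hinton, then incubated with compound at 37 °C.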

P. aeruginosa PAO1 = assay: microbe, parasite or virus in culture; format: cell-based; conditions: PAO1
In short: as §2

E. coli D21 = assay: microbe, parasite or virus in culture; format: cell-based; conditions: D21
In short: as §2

A. baumannii ATCC 19606 = assay: microbe, parasite or virus in culture; format: cell-based; conditions: ATCC 19606
In short: as §2

E. faecalis ATCC 29212 = assay: microbe, parasite or virus in culture; format: cell-based; conditions: ATCC 29212
In short: as §2

P. aeruginosa ATCC 27853 = assay: microbe, parasite or virus in culture; format: cell-based; conditions: ATCC 27853
In short: as §2

S. agalactiae ATCC 27591 = assay: microbe, parasite or virus in culture; format: cell-based; conditions: ATCC 27591
In short: as §2

B. megaterium BM11 = assay: microbe, parasite or virus in culture; format: cell-based; conditions: BM11
In short: as §2

E. coli ATCC 25922 = assay: microbe, parasite or virus in culture; format: cell-based; conditions: ATCC 25922
In short: as §2

[5] = tested on: S. epidermidis ATCC 12228; assay: microbe, parasite or virus in culture; format: cell-based; conditions: ATCC 12228
In short: as §2

CC[C@H](C)[C@H](NC(=O)[C@H](CCCNC(=N)N)NC(=O)[C@H]1CCC(=O)NCCCC[C@H](NC(=O)[C@H](Cc2ccccc2)NC(=O)[C@H](Cc2c[nH]c3ccccc23)NC(=O)[C@@H]2CCCN2C(=O)[C@@H](NC(=O)[C@@H](N)Cc2ccccc2)C(C)C)C(=O)N[C@@H](CCCCN)C(=O)N[C@@H](Cc2ccccc2)C(=O)N[C@H](CC(C)C)C(=O)N1)C(=O)N[C@@H](CC(C)C)C(N)=O [Peptide 2, FVPWF[KKFle]RIL] (H-FVPWFKKF[dL][dE]RIL-NH2; lactam 6-10)
CC50 ([1]; CC50): > 50 µM
viability at 3.12 µM ([1]; Cell viability (%)): 102%
viability at 6.25 µM ([1]; Cell viability (%)): 96%
viability at 12.5 µM ([1]; Cell viability (%)): 95%
viability at 25 µM ([1]; Cell viability (%)): 95%
viability at 50 µM ([1]; Cell viability (%)): 64%
Cell viability (%) ([2]; 3.12 µM): 101 ± 2%
Cell viability (%) ([2]; 6.25 µM): 92 ± 2%
Cell viability (%) ([2]; 12.5 µM): 92 ± 1%
Cell viability (%) ([2]; 25 µM): 94 ± 1%
CC50 ([2]; 24 h): 56.4 µM
viability [3]: > 70%
viability at 6.25 µM [4]: 107%
viability at 12.5 µM [4]: 100%
viability at 25 µM [4]: 91%
viability at 100 µM [4]: 5%
Cell viability (%) (BEAS-2B cells; 3.12 µM): 132%
Cell viability (%) (BEAS-2B cells; 6.25 µM): 119%
Cell viability (%) (BEAS-2B cells; 12.5 µM): 114%
Cell viability (%) (BEAS-2B cells; 25 µM): 102%
Cell viability (%) (BEAS-2B cells; 100 µM): 8%
MIC (S. aureus ATCC 25923): 12.5 µM (≈ 21.3 µg/mL)
MIC (P. aeruginosa PAO1): 50 µM (≈ 85.2 µg/mL)
MIC (E. coli D21): 12.5 µM (≈ 21.3 µg/mL)
MIC (A. baumannii ATCC 19606): 6.25 µM (≈ 10.7 µg/mL)
MIC (E. faecalis ATCC 29212): 25 µM (≈ 42.6 µg/mL)
MIC (P. aeruginosa ATCC 27853): 50 µM (≈ 85.2 µg/mL)
MIC (S. agalactiae ATCC 27591): 3.12 µM (≈ 5.32 µg/mL)
MIC (B. megaterium BM11): 0.78 µM (≈ 1.33 µg/mL)
MIC (E. coli ATCC 25922): 6.25 µM (≈ 10.7 µg/mL)
MIC [5]: 3.12 µM (≈ 5.32 µg/mL)
